Measurements as given in article PMC6554712 (Biochemistry, 2018).

What was measured:
FomD = FomD (Streptomyces fradiae, UniProt D2SNF7); test: […]-NMR hydrolysis assay; assay type: biochemical; settings: 100 μM FomD, 6 mM racemic HPP-CMP
Fom3 = Fom3 (Streptomyces fradiae, UniProt D2SNF5); test: Mössbauer spectroscopy of […]-labelled enzyme; assay type: binding; settings: 4.2 K, 53 mT; binds to the [4Fe-4S] cluster
[1] = substrate: Nc1ccn([C@@H]2O[C@H](COP(=O)(O)OP(=O)(O)CCO)[C@@H](O)[C@H]2O)c(=O)n1; test: steady-state kinetics, HPP-CMP formation by LC-MS/MS; assay type: biochemical, Streptomyces fradiae; settings: 1 μM Fom3, SAM, Ti(III)citrate as reductant, anaerobic

FomD, sequence (D2SNF7 whole entry): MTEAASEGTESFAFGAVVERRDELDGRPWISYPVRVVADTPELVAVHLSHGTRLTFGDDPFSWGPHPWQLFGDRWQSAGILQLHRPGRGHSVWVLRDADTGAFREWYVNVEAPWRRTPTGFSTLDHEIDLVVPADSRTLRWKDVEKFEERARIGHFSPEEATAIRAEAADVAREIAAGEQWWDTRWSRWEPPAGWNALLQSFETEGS

CC(O)CP(=O)(O)OP(=O)(O)OC[C@H]1O[C@@H](n2ccc(N)nc2=O)[C@H](O)[C@@H]1O (stereo partly shown) [HPP-CMP]
31P-NMR hydrolysis assay (FomD): FomD from S. fradiae was overproduced and purified and then used in a reaction

C[S+](CC[C@H](N)C(=O)O)C[C@H]1O[C@@H](n2cnc3c(N)ncnc32)[C@H](O)[C@@H]1O (stereo partly shown) [SAM]
Mössbauer spectroscopy of 57Fe-labelled enzyme (Fom3): Upon incubating as-isolated Fom3 with SAM

B1: Fom3 (Streptomyces fradiae) (protein)
chain: MTIGSLGSTEFALHGKPAIRWGDLPQRVGKKASRRYQKVLLLNPSATLFRHDLPRCTYPLGLGYIAAVLEKYDYEVKILDVFAEGYYNAQPVDGDEQFLRYGLSDDDIVKVIKEFAPDVIGISSIFSNQADNVHHLLKLADLVAPEAVTSIGGAHARYFPKACLDDPNLDAVFLGEGEMTFLLWLEHLNGNVREDEVHGIAWRDRDGKIQIKPELPLISSMRPEGPEQGKSSPMLSMAGELDHIPFPAWHHYNMEKYFEIKAYQSPYTVGSRVGQLYTSRGCTAHCTFCTTTHFWGQKLRRRSVDNVVNEVLRLRDEYGIDEFHIQDDNITNDMDHARELFRAFKEVGLPWATPQGTALWRMDEELLDLMAESGAYQVTFAIESGVQRVLKDLIKKPLNLGRTSHLIKYARSLGMHVHGFFIIGMPPMFGNAGESIEEMQASYDYAEESGFSSASFFAASPIVGSELLRECIRQGFVDPEESLYRMTYKQGIINVPGLWDGEEIAELAAKFNRDFNARRDRDYTPQKQWNANQY
Km [1]: 74 µM | kcat [1]: ~0.013 s⁻¹
